Holding throughout (assay type): in vivo
The subject of test [1] is Nilaparvata lugens. The experiment in a line: Test Example 7: foot drench of rice seedling, thirty first instar larvae of Nilaparvata lugens. The following applies: soil, 144 h, 5 ml drench at foot of rice seedling, kept 7 days, thirty first instar larvae released, further 6 days. The protocol: The formulations of the present active compounds (11), (13) to (15), (17), (23), (26), (35) to (41), (43) to (45), (48) to (51), (54), (55), (209), (211) and (212) obtained by Formulation Example 5 were diluted with water so that the active ingredient concentration was 500 ppm, to prepare diluted solutions for test. Separately, a rice seedling (2 weeks after sowing, second leaf spreading stage) planted on a plastic cup was drenched at its foot with each 5 ml of the diluted solutions, and kept in a greenhouse of 25° C. for 7 days. Thirty first instar larvae of Nilaparvata lugens were released, and further kept in the greenhouse for 6 days. The number of insect of living Nilaparvata lugens […] on rice was checked, and the control value was calculated according to the following formula. Control value (%)={1-(Cb×Tai)/(Cai×Tb)}×100 Letters in the formula represent the following meanings. Cb: the number of insect before treatment on non-treated district Cai: the number of insect in observation on non-treated district Tb: the number of insect before treatment on treated district Tai: the number of insect in observation on treated district

For another test, the system named is Bemisia tabaci. Nature of the test: Test Example 5: spray on tomato seedling with Bemisia tabaci larvae. The settings on record: 168 h, 10 ml/cup sprayed on tomato seedling with hatching Bemisia tabaci larvae, 7 days at 25° C. As to the method: The formulations of the present active compounds (1) to (5), (7) to (15), (17) to (21), (25), (28) to (45), (48) to (56), (101) to (103), (106), (107), (117), (118), (121) to (145), (147) to (151), (153) to (155), (204), (206), (208), (209), (211) to (213) and (216) to (221) obtained by Formulation Example 5 were diluted with water so that the active ingredient concentration was 500 ppm, to prepare spray solutions for test. Separately, on a tomato seedling planted on a plastic cup, Bemisia tabaci adult insects were released and allowed to lay eggs for about 24 hours. The tomato seedling was kept in a greenhouse […], and the above-described spray solutions for test were sprayed at a proportion of 10 ml/cup on the condition of hatching of larvae from the laid eggs, and kept in a greenhouse of 25° C. for 7 days. The number of living larvae on the tomato leaves was checked, and the control value was calculated according to the following formula. Control value (%)={1−(Cb×Tai)/(Cai×Tb)}×100 Letters in the formula represent the following meanings. Cb: the number of insect before treatment on non-treated district Cai: the number of insect in observation on non-treated district Tb: the number of insect before treatment on treated district Tai: the number of insect in observation on treated district

Test [2] has as its system Aphis gossypii. Nature of the test: Test Example 2: foot drench of cucumber seedling on urethane mat, Aphis gossypii. The settings on record: soil, 168 h, 5 ml drench at foot of cucumber seedling on urethane mat, inoculated one day after treatment, checked seven days after. The protocol: The formulations of the present active compounds (4), (5), (8), (9), (11), (12), (14), (15), (17), (20), (35) to (45), (48) to (51), (54) to (56), (206), (209) and (211) to (213) obtained by Formulation Example 5 were diluted with water so that the active ingredient concentration was 500 ppm, to prepare diluted solutions for test. Separately, a cucumber seedling (second true leaf spreading stage) planted on a urethane mat was drenched at its foot with each 5 ml of the diluted solutions, and one day after treatment, the cucumber leaf surface was inoculated with 30 Aphis gossypii (whole stage). Further seven days after, the number of insect of living Aphis gossypii […] on the leaves of this cucumber was checked, and the control value was calculated according to the following formula. Control value (%)={1-(Cb×Tai)/(Cai×Tb)}×100 Letters in the formula represent the following meanings. Cb: the number of insect before treatment on non-treated district Cai: the number of insect in observation on non-treated district Tb: the number of insect before treatment on treated district Tai: the number of insect in observation on treated district

The subject of test [3] is Aphis gossypii. The experiment in a line: Test Example 4: foot drench of cucumber seedling in plastic cup, inoculation after 7 days, Aphis gossypii. The following applies: soil, 144 h, 5 ml drench at foot of cucumber seedling in plastic cup, kept 7 days at 25° C., inoculated, further 6 days. Summed up:
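Cucumber seedlings at second true leaf stage were soil-drenched with 5 ml of 500 ppm active ingredient and held 7 days at 25° C in greenhouse. Then 30 aphids (all stages) were placed on leaves; live insects counted 6 days later, control value (%) from treated/untreated counts before and after.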

Test [4] has as its system Nilaparvata lugens. Nature of the test: Test Example 9: foot drench of rice seedling, twenty first instar larvae of Nilaparvata lugens. The settings on record: soil, 144 h, 5 ml drench at foot of rice seedling, kept 7 days, twenty first instar larvae released, further 6 days. As to the method:
The formulations of the present active compounds (6), (7), (18), (22), (25), (30), (33), (46), (47), (53), (101) to (103), (106), (121) to (124), (126) to (128), (135), (139), (216) and (217) obtained by Formulation Example 5 were diluted with water so that the active ingredient concentration was 500 ppm, to prepare diluted solutions for test. Separately, a rice seedling (2 weeks after sowing, second leaf spreading stage) planted on a plastic cup was drenched at its foot with each 5 ml of the diluted solutions, and kept in a greenhouse of 25° C. for 7 days. Twenty first instar larvae of Nilaparvata lugens were released, and further kept in the greenhouse for 6 days, then, the number of insect of living Nilaparvata lugens […] on rice was checked, and the control value was calculated according to the following formula. Control value (%)={1-(Cb×Tai)/(Cai×Tb)}×100 Letters in the formula represent the following meanings. Cb: the number of insect before treatment on non-treated district Cai: the number of insect in observation on non-treated district Tb: the number of insect before treatment on treated district Tai: the number of insect in observation on treated district

Test [5] concerns Aphis gossypii. Nature of the test: Test Example 1: spray on cucumber seedling inoculated with Aphis gossypii. The following applies: 500 ppm, 10 ml sprayed on cucumber seedling inoculated with about 30 Aphis gossypii; five days after spraying. The protocol: The formulations of the present active compounds (1) to (15), (17) to (25), (27) to (56), (101) to (103), (105) to (108), (117), (118), (121) to (130), (133) to (144), (147), (148), (152) to (156), (202), (204) to (206), (208), (209), (211) to (213), and (216) to (221) obtained by Formulation Example 5 were diluted with water so that the active ingredient concentration was 500 ppm, to prepare spray solutions for test. Separately, a cucumber seedling (second true leaf spreading stage) planted on a plastic cup was inoculated with about 30 Aphis gossypii, and left for 1 day. The above-described diluted solutions were sprayed each in an amount of 10 ml on this seedling. Five days after spraying, the number of insect of living Aphis gossypii […] on the leaves of this cucumber was checked, and the control value was calculated according to the following formula. Control value (%)={1-(Cb×Tai)/(Cai×Tb)}×100 Letters in the formula represent the following meanings. Cb: the number of insect before treatment on non-treated district Cai: the number of insect in observation on non-treated district Tb: the number of insect before treatment on treated district Tai: the number of insect in observation on treated district

Test [6] has as its system Nilaparvata lugens. Nature of the test: Test Example 8: spray on rice seedling, 20 first instar larvae of Nilaparvata lugens. The following applies: 144 h, 10 ml sprayed on rice seedling, 20 first instar larvae released, 6 days at 25° C. The protocol:
The formulations of the present active compounds (6), (7), (18), (21), (24), (25), (28) to (30), (32), (46), (52), (101) to (103), (105) to (107), (111), (112), (115), (119) to (124), (126) to (130), (133) to (135), (139), (142), (144) to (146), (149) to (151), (153), (154), (216) and (217) obtained by Formulation Example 5 were diluted with water so that the active ingredient concentration was 500 ppm, to prepare spray solutions for test. Separately, on a rice seedling (2 weeks after sowing, second leaf spreading stage) planted on a plastic cup, the drug solutions for test prepared as described above were sprayed each in an amount of 10 ml. After drying of the drug solution sprayed on rice, 20 first instar larvae of Nilaparvata lugens were released, and kept in a greenhouse of 25° C. for 6 days. Thereafter, the number of Nilaparvata lugens […] on rice was checked, and the control value was calculated according to the following formula. Control value (%)={1-(Cb×Tai)/(Cai×Tb)}×100 Letters in the formula represent the following meanings. Cb: the number of insect before treatment on non-treated district Cai: the number of insect in observation on non-treated district Tb: the number of insect before treatment on treated district Tai: the number of insect in observation on treated district

The subject of test [7] is Aphis gossypii. Nature of the test: Test Example 3: root immersion of cucumber seedling, Aphis gossypii. The following applies: 168 h, cucumber root part immersed in 5 ml, inoculated one day after treatment, checked seven days after. In short, it runs like this:
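Roots of washed cucumber seedlings (first true leaf stage) immersed in 500 ppm water-diluted formulation; 30 A. gossypii (whole stage) placed on leaves one day later. Living aphids counted seven days after, control value (%) = {1-(Cb×Tai)/(Cai×Tb)}×100 vs non-treated.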

As a reminder, the pest or weed control is the degree to which the test organism was suppressed or injured, in per cent.

`C=C(CF)Oc1cnccc1-c1nc2cc(C(F)(F)F)ccc2n1C` [present active compound 209, 2-[3-(1-fluoromethyl-vinyloxy)-pyridin-4-yl-]-1-methyl-5-trifluoromethyl-1H-benzimidazole]: the pest or weed control at 500 ppm with Nilaparvata lugens [1], in the test on Bemisia tabaci and with Aphis gossypii [2] was ≥ 90% each time.

Regarding `CCCCOc1cnccc1-c1nc2cc(C(F)(F)F)ccc2n1C` [present active compound 206, 2-(3-butoxypyridin-4-yl-)-1-methyl-5-trifluoromethyl-1H-benzimidazole], the pest or weed control at 500 ppm with Bemisia tabaci and in the test with Aphis gossypii [2] was ≥ 90% in each case.

In the case of `COCCc1cnccc1-c1nc2cc(C(F)(F)F)cnc2n1C` [present active compound 106], the pest or weed control at 500 ppm in the test on Aphis gossypii [3], with Nilaparvata lugens [4] and in the test on Bemisia tabaci was ≥ 90% throughout.

With `Cc1cc2nc(-c3ccncc3)n(C)c2cc1C` [comparative compound (C)], the control value entry in the test on Aphis gossypii [5] is “less than 30%”.

As for `Cn1c(-c2cc[n+]([O-])cc2F)nc2cc(C(F)(F)F)ccc21` [present active compound 25, 2-(3-fluoro-1-oxypyridin-4-yl)-1-methyl-5-trifluoromethyl-1H-benzimidazole], the pest or weed control at 500 ppm in the test on Nilaparvata lugens [6], with Nilaparvata lugens [4], in the test on Aphis gossypii [7] and with Bemisia tabaci was ≥ 90% throughout.

For the compound `CC(CC(=O)O)n1c(-c2ccncc2)nc2cc(C(F)(F)F)ccc21` (centres unmarked) [comparative compound (B)], the control value entry in the test on Aphis gossypii [5] is recorded as “less than 30%”.

Values taken from patent US8461181B2, “Fused heterocyclic compound and use thereof” (Sumitomo Chemical Company, Ltd., priority 2009, dated 2013).
